# Measurements published in the Kinase Knowledgebase extract (Sharma et al. 2016).
# Biological target: EGFR (UniProt P00533)
# Conditions: her-14
# Chain of EGFR (P00533 whole entry, looked up): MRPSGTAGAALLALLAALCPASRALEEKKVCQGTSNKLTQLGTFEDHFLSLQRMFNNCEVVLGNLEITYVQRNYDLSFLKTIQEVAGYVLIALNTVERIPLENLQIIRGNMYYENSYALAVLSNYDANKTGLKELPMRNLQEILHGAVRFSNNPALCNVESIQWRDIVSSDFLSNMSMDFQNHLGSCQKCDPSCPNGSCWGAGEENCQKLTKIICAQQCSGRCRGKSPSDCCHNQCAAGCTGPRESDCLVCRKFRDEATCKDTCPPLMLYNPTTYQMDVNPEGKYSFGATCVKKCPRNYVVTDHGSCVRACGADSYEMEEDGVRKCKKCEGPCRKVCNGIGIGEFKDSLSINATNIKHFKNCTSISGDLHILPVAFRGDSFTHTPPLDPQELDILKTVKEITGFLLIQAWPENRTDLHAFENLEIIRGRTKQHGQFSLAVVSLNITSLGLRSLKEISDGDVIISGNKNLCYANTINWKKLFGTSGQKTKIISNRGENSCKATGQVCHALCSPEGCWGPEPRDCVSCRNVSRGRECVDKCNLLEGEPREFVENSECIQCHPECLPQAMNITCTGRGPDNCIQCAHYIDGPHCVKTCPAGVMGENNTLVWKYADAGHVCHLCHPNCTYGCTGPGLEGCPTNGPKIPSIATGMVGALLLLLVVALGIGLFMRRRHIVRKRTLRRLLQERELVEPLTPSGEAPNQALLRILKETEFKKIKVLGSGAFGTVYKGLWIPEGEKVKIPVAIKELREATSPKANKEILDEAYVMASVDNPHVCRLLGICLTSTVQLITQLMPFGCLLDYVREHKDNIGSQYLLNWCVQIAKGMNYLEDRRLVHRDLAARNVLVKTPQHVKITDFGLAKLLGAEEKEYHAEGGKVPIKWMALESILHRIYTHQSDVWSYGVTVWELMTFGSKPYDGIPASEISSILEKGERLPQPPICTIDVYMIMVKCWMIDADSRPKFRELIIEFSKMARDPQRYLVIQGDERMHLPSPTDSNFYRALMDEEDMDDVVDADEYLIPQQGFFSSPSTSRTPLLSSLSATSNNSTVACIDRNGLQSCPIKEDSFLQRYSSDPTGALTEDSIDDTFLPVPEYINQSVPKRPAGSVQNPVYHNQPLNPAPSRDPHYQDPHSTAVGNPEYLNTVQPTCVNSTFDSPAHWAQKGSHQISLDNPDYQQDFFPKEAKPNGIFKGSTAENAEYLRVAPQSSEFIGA
row,Compound,IC50 [µM]
1,N#C/C(=C\c1ccc(O)c(O)c1)C(=O)NC1CCC(CC2CCC(NC(=O)/C(C#N)=C/c3ccc(O)c(O)c3)CC2)CC1 (centres undefined),20.3
2,N#C/C(=C\c1ccc(O)c(O)c1)C(=O)NCC1CCCC(CNC(=O)/C(C#N)=C/c2ccc(O)c(O)c2)C1 (centres undefined),12.5
3,N#C/C(=C\c1ccc(O)c(O)c1)C(=O)NCN1CCN(C(=O)/C(C#N)=C/c2ccc(O)c(O)c2)CC1,5.8
4,COc1cc(/C=C(\C#N)C(=O)NCCCCNC(=O)/C(C#N)=C/c2cc(Br)c(O)c(OC)c2)cc(Br)c1O,3
5,N#C/C(=C\c1ccc(O)c(O)c1)C(=O)N1CCN(C(=O)/C(C#N)=C/c2ccc(O)c(O)c2)CC1,10
6,COc1cc(/C=C(\C#N)C(=O)NCCCCNC(=O)/C(C#N)=C/c2cc(OC)c(O)c([N+](=O)[O-])c2)cc([N+](=O)[O-])c1O,> 80
7,N#C/C(=C\c1ccc(O)c(O)c1)S(=O)(=O)/C(C#N)=C/c1ccc(O)c(O)c1,2
8,N#C/C(=C\c1ccc(O)c(O)c1)C(=O)NCCCN1CCN(CCCNC(=O)/C(C#N)=C/c2ccc(O)c(O)c2)CC1,7
9,N#C/C(=C\c1ccc(O)c(O)c1)C(=O)NCCCCCNC(=O)/C(C#N)=C/c1ccc(O)c(O)c1,9
10,N#C/C(=C\c1ccc(O)c(O)c1)C(=O)NCc1cccc(CNC(=O)/C(C#N)=C/c2ccc(O)c(O)c2)c1,6
11,N#C/C(=C\c1ccc(O)c(O)c1)C(=O)NCCCCNC(=O)/C(C#N)=C/c1ccc(O)c(O)c1,5
12,N#C/C(=C\c1cc(O)c(O)c([N+](=O)[O-])c1)C(=O)NCCCNC(=O)/C(C#N)=C/c1cc(O)c(O)c([N+](=O)[O-])c1,35
13,N#C/C(=C\c1ccc(O)c(O)c1)C(=O)NCCCCCCNC(=O)/C(C#N)=C/c1ccc(O)c(O)c1,5
14,N#C/C(=C\c1cc(O)c(O)c(O)c1)C(=O)NCCCCNC(=O)/C(C#N)=C/c1cc(O)c(O)c(O)c1,5
15,N#C/C(=C\c1ccc(O)c(O)c1)C(=O)NC1CCCCC1NC(=O)/C(C#N)=C/c1ccc(O)c(O)c1 (centres undefined),4
16,N#C/C(=C\c1ccc(O)c(O)c1)C(=O)NCCN1CCN(C(=O)/C(C#N)=C/c2ccc(O)c(O)c2)CC1,6.2
17,N#C/C(=C\c1ccc(O)c(O)c1)C(=O)NCCCCCCCCCCNC(=O)/C(C#N)=C/c1ccc(O)c(O)c1,25
18,N#C/C(=C\c1ccc(O)c(O)c1)C(=O)NCCNC(=O)/C(C#N)=C/c1ccc(O)c(O)c1,10
19,N#C/C(=C\c1cc(O)c(O)c(Br)c1)C(=O)NCCCNC(=O)/C(C#N)=C/c1cc(O)c(O)c(Br)c1,7.3
